In US20190330224A1, “ACC INHIBITORS AND USES THEREOF” (Gilead Apollo, LLC, priority 2015, published 2019):
Converted amounts (≈) assume the structure as drawn.

Experiments:
C. albicans ATCC 90028 = experiment: Anti-Fungal Activity Assay (broth microtiter MIC), C. albicans; format: cell-based, Candida albicans; conditions: Candida albicans, ATCC90028, 48 h, 3 replicates; MIC recorded at 48 h; read-out: MIC C. albicans ATCC 90028
Procedure, shortened: (§1)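 Broth microdilution per CLSI M27-A3 in RPMI 1640+MOPS, inoculum from overnight Sabouraud dextrose agar colonies at 35° C; compounds from 1 mg/mL DMSO stocks. MIC read visually against growth control at 48 h, with an added 24 h reading for soraphen.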

C. krusei ATCC 6258 = experiment: Anti-Fungal Activity Assay (broth microtiter MIC), C. krusei; format: cell-based, Candida krusei; conditions: Pichia kudriavzevii, ATCC6258, 48 h, 3 replicates; MIC recorded at 48 h; read-out: MIC C. krusei ATCC 6258
Procedure, shortened: as §1

Human ACC2 = Human ACC2 (Homo sapiens, UniProt O00763); experiment: In vitro ACC2 inhibition assay (ADP-Glo), human ACC2; format: biochemical; conditions: 5 nM ACC2, 20 μM ATP, 20 μM acetyl-CoA
Fungal ACC2 = Fungal ACC2 (UniProt Q00955); conditions: read-out: Fungal ACC2 (IC50, in vitro ACC2 inhibition)
[1] = system: C. parapsilosis ATCC 22019; experiment: Anti-Fungal Activity Assay (broth microtiter MIC), C. parapsilosis; format: cell-based, Candida parapsilosis; conditions: Lodderomyces parapsilosis, ATCC22019, 48 h, 3 replicates; MIC recorded at 48 h; read-out: MIC C. parapsilosis ATCC 22019
Procedure, shortened: as §1

Sequence of Human ACC2 (O00763 whole entry): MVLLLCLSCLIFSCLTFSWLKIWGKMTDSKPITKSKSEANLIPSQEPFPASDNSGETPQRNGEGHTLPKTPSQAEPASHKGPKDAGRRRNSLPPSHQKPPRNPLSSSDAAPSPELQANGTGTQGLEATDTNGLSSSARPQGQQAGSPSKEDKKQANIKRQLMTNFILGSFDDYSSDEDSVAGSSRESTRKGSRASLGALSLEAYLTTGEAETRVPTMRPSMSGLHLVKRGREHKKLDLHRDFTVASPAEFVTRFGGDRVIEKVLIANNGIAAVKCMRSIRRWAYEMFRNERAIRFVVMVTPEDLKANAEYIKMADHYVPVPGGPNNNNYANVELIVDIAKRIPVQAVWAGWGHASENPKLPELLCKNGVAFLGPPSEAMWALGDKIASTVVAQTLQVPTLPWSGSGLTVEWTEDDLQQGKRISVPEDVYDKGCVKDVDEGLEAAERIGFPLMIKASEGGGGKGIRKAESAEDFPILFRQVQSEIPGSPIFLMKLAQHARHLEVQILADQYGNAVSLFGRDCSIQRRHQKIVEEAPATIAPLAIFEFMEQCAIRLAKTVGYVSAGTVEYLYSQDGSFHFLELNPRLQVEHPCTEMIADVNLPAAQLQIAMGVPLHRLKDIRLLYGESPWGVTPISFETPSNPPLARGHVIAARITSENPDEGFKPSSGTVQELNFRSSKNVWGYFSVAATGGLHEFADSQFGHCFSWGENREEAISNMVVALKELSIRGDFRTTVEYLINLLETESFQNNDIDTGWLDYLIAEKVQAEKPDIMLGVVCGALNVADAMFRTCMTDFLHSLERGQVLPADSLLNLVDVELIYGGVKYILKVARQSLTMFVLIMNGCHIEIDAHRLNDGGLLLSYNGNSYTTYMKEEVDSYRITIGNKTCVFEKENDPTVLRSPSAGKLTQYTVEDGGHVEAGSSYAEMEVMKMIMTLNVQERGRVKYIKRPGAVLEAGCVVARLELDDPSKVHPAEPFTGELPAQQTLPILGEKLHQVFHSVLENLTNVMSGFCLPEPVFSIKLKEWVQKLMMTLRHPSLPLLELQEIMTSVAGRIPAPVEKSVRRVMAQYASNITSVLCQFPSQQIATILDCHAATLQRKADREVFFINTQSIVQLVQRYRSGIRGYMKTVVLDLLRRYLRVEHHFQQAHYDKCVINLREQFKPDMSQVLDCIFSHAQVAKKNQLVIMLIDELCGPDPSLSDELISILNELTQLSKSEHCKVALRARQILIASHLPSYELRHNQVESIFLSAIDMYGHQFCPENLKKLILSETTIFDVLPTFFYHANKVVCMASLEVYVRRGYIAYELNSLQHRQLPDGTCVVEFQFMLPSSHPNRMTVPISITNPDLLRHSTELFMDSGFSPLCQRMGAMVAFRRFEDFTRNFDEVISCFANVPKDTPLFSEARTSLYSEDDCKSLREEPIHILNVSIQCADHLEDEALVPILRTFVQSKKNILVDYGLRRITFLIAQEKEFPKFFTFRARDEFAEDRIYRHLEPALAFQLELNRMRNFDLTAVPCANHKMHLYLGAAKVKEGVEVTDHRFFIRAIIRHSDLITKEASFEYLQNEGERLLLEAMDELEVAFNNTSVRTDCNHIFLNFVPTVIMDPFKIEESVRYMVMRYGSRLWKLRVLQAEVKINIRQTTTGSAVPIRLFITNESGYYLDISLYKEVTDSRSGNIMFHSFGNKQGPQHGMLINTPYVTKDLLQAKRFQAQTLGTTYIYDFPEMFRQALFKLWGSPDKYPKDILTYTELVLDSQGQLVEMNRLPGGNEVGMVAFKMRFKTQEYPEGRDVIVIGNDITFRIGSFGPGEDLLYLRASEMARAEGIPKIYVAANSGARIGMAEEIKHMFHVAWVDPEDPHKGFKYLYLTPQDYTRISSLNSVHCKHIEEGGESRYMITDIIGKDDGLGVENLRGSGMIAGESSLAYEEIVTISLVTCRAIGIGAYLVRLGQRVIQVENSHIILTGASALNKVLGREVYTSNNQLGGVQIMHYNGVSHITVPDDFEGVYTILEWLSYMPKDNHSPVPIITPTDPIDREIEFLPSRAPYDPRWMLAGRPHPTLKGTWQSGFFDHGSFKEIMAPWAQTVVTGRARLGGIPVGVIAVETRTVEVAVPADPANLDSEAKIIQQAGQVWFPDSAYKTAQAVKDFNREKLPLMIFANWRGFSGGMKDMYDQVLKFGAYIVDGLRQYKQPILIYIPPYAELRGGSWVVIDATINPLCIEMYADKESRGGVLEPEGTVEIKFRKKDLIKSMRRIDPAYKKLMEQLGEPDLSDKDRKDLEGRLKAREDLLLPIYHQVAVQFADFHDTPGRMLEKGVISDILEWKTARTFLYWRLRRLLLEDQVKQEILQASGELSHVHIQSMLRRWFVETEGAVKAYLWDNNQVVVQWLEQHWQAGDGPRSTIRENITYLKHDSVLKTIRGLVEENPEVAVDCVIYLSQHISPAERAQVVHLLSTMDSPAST
Sequence of Fungal ACC2 (Q00955 whole entry): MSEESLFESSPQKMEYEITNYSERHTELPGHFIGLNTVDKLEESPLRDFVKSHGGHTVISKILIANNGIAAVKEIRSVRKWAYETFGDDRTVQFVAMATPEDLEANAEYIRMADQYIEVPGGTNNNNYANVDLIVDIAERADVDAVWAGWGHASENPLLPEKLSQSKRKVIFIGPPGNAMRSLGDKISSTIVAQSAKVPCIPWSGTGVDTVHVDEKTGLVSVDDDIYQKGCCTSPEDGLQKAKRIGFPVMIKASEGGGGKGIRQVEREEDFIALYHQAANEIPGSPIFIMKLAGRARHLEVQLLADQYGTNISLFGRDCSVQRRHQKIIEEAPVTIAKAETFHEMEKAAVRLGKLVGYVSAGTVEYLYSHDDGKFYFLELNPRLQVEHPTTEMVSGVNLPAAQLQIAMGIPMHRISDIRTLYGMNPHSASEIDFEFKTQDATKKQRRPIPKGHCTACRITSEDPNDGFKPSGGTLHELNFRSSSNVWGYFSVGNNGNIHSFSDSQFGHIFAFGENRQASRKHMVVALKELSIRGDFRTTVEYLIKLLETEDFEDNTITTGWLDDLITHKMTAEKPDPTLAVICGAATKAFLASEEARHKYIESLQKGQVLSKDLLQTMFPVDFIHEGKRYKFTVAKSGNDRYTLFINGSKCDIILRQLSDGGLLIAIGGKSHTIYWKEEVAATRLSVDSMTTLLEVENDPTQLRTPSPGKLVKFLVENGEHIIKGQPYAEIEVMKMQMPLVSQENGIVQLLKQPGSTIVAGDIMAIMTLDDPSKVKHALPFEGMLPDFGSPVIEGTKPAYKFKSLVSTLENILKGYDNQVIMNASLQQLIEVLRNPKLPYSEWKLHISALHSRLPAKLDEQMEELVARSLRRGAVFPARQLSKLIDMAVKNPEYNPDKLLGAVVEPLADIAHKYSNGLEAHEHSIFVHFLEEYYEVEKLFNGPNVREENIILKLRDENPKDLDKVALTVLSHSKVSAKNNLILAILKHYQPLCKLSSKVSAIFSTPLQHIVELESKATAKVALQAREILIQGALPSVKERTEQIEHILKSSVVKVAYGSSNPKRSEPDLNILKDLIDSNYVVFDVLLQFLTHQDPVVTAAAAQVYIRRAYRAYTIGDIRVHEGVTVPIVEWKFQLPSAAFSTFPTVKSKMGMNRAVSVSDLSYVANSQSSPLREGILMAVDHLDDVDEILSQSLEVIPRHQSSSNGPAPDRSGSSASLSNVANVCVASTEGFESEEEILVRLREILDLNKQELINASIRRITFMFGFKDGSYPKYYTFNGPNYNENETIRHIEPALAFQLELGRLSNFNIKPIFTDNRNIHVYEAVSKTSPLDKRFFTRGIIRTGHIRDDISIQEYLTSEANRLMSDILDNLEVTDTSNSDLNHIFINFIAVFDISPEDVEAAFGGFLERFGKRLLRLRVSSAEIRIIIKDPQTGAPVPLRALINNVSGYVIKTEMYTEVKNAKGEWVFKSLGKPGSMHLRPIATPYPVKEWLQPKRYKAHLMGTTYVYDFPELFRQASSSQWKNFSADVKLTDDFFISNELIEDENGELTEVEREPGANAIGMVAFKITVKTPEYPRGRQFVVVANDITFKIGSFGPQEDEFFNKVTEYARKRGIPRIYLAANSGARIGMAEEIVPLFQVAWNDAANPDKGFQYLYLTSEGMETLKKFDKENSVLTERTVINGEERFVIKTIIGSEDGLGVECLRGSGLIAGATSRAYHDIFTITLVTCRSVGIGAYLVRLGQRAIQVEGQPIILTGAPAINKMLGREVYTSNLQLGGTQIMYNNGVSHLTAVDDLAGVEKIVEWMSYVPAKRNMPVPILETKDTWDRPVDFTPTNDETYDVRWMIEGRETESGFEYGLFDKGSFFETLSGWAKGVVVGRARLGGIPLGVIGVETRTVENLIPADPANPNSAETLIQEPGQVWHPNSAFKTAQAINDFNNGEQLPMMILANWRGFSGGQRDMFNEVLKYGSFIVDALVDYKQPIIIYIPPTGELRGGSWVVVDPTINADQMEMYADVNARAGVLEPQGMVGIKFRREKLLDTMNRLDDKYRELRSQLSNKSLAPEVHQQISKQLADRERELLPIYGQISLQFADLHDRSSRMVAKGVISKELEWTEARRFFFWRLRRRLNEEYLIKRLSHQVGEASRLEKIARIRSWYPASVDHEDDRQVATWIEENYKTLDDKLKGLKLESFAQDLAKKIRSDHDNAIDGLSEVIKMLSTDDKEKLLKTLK

Work on `COc1ccccc1[C@H](Cn1c(=O)n([C@@H]2CCCNC2=O)c(=O)c2c(C)c(-c3ncco3)sc21)OCCO` [Compound I-61, 1-((R)-2-(2-hydroxyethoxy)-2-(2-methoxyphenyl)ethyl)-5-methyl-6-(oxazol-2-yl)-3-((R)-2-oxopiperidin-3-yl)thieno[2,3-d]pyrimidine-2,4(1H,3H)-dione] yielded an MIC (C. albicans ATCC 90028) of 2.1 to 4 µg/mL (≈ 3.88 to 7.4 µM), an MIC (C. krusei ATCC 6258) of 2.1 to 4 µg/mL (≈ 3.88 to 7.4 µM) and an IC50 (Human ACC2) of 10 to 100 nM. For the same molecule, the IC50 (Fungal ACC2) was 0.7 to 2 nM and the MIC [1] was 2.1 to 4 µg/mL (≈ 3.88 to 7.4 µM).

`COc1ccccc1[C@H](Cn1c(=O)n([C@H]2CCCN(C)C2=O)c(=O)c2c(C)c(-c3ncco3)sc21)OCCO` [Compound I-66, 1-((R)-2-(2-hydroxyethoxy)-2-(2-methoxyphenyl)ethyl)-5-methyl-3-((S)-1-methyl-2-oxopiperidin-3-yl)-6-(oxazol-2-yl)thieno[2,3-d]pyrimidine-2,4(1H,3H)-dione] was tested, and the MIC (C. albicans ATCC 90028) was 2.1 to 4 µg/mL (≈ 3.79 to 7.21 µM), the MIC (C. krusei ATCC 6258) was 2.1 to 4 µg/mL (≈ 3.79 to 7.21 µM) and the IC50 (Human ACC2) was 10 to 100 nM. The IC50 (Fungal ACC2) was 2 to 10 nM and the MIC [1] was 2.1 to 4 µg/mL (≈ 3.79 to 7.21 µM).

For `COc1ccccc1[C@H](Cn1c(=O)n([C@@H]2CCCN(C)C2=O)c(=O)c2c(C)c(-c3ncco3)sc21)OCCO` [Compound I-67, 1-((R)-2-(2-hydroxyethoxy)-2-(2-methoxyphenyl)ethyl)-5-methyl-3-((R)-1-methyl-2-oxopiperidin-3-yl)-6-(oxazol-2-yl)thieno[2,3-d]pyrimidine-2,4(1H,3H)-dione], the MIC (C. albicans ATCC 90028) was 2.1 to 4 µg/mL (≈ 3.79 to 7.21 µM), the MIC (C. krusei ATCC 6258) was 2.1 to 4 µg/mL (≈ 3.79 to 7.21 µM) and the IC50 (Human ACC2) was 10 to 100 nM. The IC50 (Fungal ACC2) was 2 to 10 nM and the MIC [1] was 2.1 to 4 µg/mL (≈ 3.79 to 7.21 µM).

`COc1ccc(F)cc1[C@H](Cn1c(=O)n([C@H]2CCNC2=O)c(=O)c2c(C)c(-c3ncco3)sc21)OCCO` [Compound I-68, 1-((R)-2-(5-fluoro-2-methoxyphenyl)-2-(2-hydroxy-ethoxy)ethyl)-5-methyl-6-(oxazol-2-yl)-3-((S)-2-oxopyrrolidin-3-yl)thieno[2,3-d]pyrimidine-2,4(1H,3H)-dione] gave an MIC (C. albicans ATCC 90028) of 2.1 to 4 µg/mL (≈ 3.86 to 7.35 µM), an MIC (C. krusei ATCC 6258) of 2.1 to 4 µg/mL (≈ 3.86 to 7.35 µM) and an IC50 (Human ACC2) of 10 to 100 nM. For the same molecule, the IC50 (Fungal ACC2) was 2 to 10 nM and the MIC [1] was 2.1 to 4 µg/mL (≈ 3.86 to 7.35 µM).

Work on `COc1ccc(F)cc1[C@H](Cn1c(=O)n([C@@H]2CCNC2=O)c(=O)c2c(C)c(-c3ncco3)sc21)OCCO` [Compound I-69, 1-((R)-2-(5-fluoro-2-methoxyphenyl)-2-(2-hydroxy-ethoxy)ethyl)-5-methyl-6-(oxazol-2-yl)-3-((R)-2-oxopyrrolidin-3-yl)thieno[2,3-d]pyrimidine-2,4(1H,3H)-dione] yielded an MIC (C. albicans ATCC 90028) of 2.1 to 4 µg/mL (≈ 3.86 to 7.35 µM), an MIC (C. krusei ATCC 6258) of 2.1 to 4 µg/mL (≈ 3.86 to 7.35 µM) and an IC50 (Human ACC2) of 10 to 100 nM. It also gave an IC50 (Fungal ACC2) of 2 to 10 nM and an MIC [1] of 2.1 to 4 µg/mL (≈ 3.86 to 7.35 µM).

`COCCO[C@@H](Cn1c(=O)n([C@@H]2CCN(C(=O)C(C)C)C2)c(=O)c2c(C)c(-n3nccn3)sc21)c1cc(F)ccc1OC` [Compound I-86, 1-((R)-2-(5-fluoro-2-methoxyphenyl)-2-(2-methoxy-ethoxy)ethyl)-3-((R)-1-isobutyrylpyrrolidine-3-yl)-5-methyl-6-(2H-1,2,3-triazol-2-yl)thieno[2,3-d]pyrimidine-2,4(1H,3H)-dione] showed an MIC (C. albicans ATCC 90028) of 2.1 to 4 µg/mL (≈ 3.42 to 6.51 µM), an MIC (C. krusei ATCC 6258) of 2.1 to 4 µg/mL (≈ 3.42 to 6.51 µM) and an IC50 (Human ACC2) of 10 to 100 nM. For the same molecule, the IC50 (Fungal ACC2) was 0.7 to 2 nM and the MIC [1] was 2.1 to 4 µg/mL (≈ 3.42 to 6.51 µM).

Molecule `COc1ccc(F)cc1[C@H](Cn1c(=O)n([C@@H]2CCN(C(=O)C(C)C)C2)c(=O)c2c(C)c(-n3nccn3)sc21)OCCO` [Compound I-87, 1-((R)-2-(5-fluoro-2-methoxyphenyl)-2-(2-hydroxy-ethoxy)ethyl)-3-((R)-1-isobutyrylpyrrolidine-3-yl)-5-methyl-6-(2H-1,2,3-triazol-2-yl)thieno[2,3-d]pyrimidine-2,4(1H,3H)-dione] has an MIC (C. albicans ATCC 90028) of 2.1 to 4 µg/mL (≈ 3.5 to 6.66 µM), an MIC (C. krusei ATCC 6258) of 2.1 to 4 µg/mL (≈ 3.5 to 6.66 µM) and an IC50 (Human ACC2) of 10 to 100 nM. For the same molecule, the IC50 (Fungal ACC2) was 0.7 to 2 nM and the MIC [1] was 2.1 to 4 µg/mL (≈ 3.5 to 6.66 µM).

With `COCCO[C@@H](Cn1c(=O)n([C@H]2CNC(=O)C2)c(=O)c2c(C)c(-n3nccn3)sc21)c1cc(F)ccc1OC` [Compound I-88, 1-((R)-2-(5-fluoro-2-methoxyphenyl)-2-(2-methoxy-ethoxy)ethyl)-5-methyl-3-((R)-5-oxopyrrolidin-3-yl)-6-(2H-1,2,3-triazol-2-yl)thieno[2,3-d]pyrimidine-2,4(1H,3H)-dione] the MIC (C. albicans ATCC 90028) was 2.1 to 4 µg/mL (≈ 3.76 to 7.16 µM), the MIC (C. krusei ATCC 6258) was 2.1 to 4 µg/mL (≈ 3.76 to 7.16 µM) and the IC50 (Human ACC2) was 10 to 100 nM. For the same molecule, the IC50 (Fungal ACC2) was 0.7 to 2 nM and the MIC [1] was 2.1 to 4 µg/mL (≈ 3.76 to 7.16 µM).

`COc1ccc(F)cc1[C@H](Cn1c(=O)n([C@H]2CNC(=O)C2)c(=O)c2c(C)c(-n3nccn3)sc21)OCCO` [Compound I-89, 1-((R)-2-(5-fluoro-2-methoxyphenyl)-2-(2-hydroxy-ethoxy)ethyl)-5-methyl-3-((R)-5-oxopyrrolidin-3-yl)-6-(2H-1,2,3-triazol-2-yl)thieno[2,3-d]pyrimidine-2,4(1H, 3H)-dione] gave an MIC (C. albicans ATCC 90028) of 2.1 to 4 µg/mL (≈ 3.86 to 7.35 µM), an MIC (C. krusei ATCC 6258) of 2.1 to 4 µg/mL (≈ 3.86 to 7.35 µM) and an IC50 (Human ACC2) of 2 to 10 nM. The IC50 (Fungal ACC2) was 0.7 to 2 nM and the MIC [1] was 2.1 to 4 µg/mL (≈ 3.86 to 7.35 µM).
